Laboratory results from patent publication US20090298857A1, “Treatment of Neurodegenerative Diseases Through Inhibition of HSP90” (SLOAN-KETTERING INSTITUTE FOR CANCER RESEARCH, priority 2006, published 2009).
Like-named read-outs stand apart in the source and are kept apart here.

Experiments:
[1] = known Hsp90 inhibitors; cited from earlier work
[2] = system: p35 in primary neurons, COS-7/p35 and COS-7/p35/Tau cells; test: p35 degradation and Tau phosphorylation in primary neurons and transfected COS-7 cells; format: cell-based, rat; details: compared with PU24FC1
Protocol: To further examine the roles played by Hsp90 in tauopathy, we made use of both PU24FC1 and 17-(allyllamino)-17-demethoxygeldanamycin (17AAG) and investigated their effects on both cdk5/p35 and TauP301L in primary neuronal and COS-7 cell cultures. Primary neuronal cultures were derived from the cerebral cortices of embryonic day 17 rat embryos and maintained as described previously (105). To determine the effects of PU24FC1 on protein steady-states and on Tau phosphorylation, PU24FC1 was added at day 6 of culture, and cells were incubated at 37° C. as indicated. […] After incubation, cells were harvested and lysed in 2% SDS, and the resulting samples were analyzed by Western blotting.
Phosphorylation of Tau by cdk5 is initiated through activation by complex formation with one of the neuron-specific proteins p35 or p39. […] In concordance, we assessed the influence of Hsp90 inhibition on p35 cellular expression. A dose- and time-dependent degradation of p35 by PU24FC1 was detected in primary neurons by immunoblot and by immunofluorescence techniques, as well as in COS-7/p35 and COS-7/p35/Tau cells. […]
We detected a dose- and time-dependent degradation of p35 by PU24FC1 in primary neurons, as well as in COS-7/p35 and COS-7/p35/Tau cells. […] Reduction of p35 levels by Hsp90 inhibition affected the activity of the cdk5/p35 complex, as measured using a substrate of cdk5, the histone-H1. […]

P-glycoprotein = P-glycoprotein (Homo sapiens, UniProt P08183); details: known Hsp90 inhibitor, cited from earlier work
Sequence of P-glycoprotein (P08183 whole entry): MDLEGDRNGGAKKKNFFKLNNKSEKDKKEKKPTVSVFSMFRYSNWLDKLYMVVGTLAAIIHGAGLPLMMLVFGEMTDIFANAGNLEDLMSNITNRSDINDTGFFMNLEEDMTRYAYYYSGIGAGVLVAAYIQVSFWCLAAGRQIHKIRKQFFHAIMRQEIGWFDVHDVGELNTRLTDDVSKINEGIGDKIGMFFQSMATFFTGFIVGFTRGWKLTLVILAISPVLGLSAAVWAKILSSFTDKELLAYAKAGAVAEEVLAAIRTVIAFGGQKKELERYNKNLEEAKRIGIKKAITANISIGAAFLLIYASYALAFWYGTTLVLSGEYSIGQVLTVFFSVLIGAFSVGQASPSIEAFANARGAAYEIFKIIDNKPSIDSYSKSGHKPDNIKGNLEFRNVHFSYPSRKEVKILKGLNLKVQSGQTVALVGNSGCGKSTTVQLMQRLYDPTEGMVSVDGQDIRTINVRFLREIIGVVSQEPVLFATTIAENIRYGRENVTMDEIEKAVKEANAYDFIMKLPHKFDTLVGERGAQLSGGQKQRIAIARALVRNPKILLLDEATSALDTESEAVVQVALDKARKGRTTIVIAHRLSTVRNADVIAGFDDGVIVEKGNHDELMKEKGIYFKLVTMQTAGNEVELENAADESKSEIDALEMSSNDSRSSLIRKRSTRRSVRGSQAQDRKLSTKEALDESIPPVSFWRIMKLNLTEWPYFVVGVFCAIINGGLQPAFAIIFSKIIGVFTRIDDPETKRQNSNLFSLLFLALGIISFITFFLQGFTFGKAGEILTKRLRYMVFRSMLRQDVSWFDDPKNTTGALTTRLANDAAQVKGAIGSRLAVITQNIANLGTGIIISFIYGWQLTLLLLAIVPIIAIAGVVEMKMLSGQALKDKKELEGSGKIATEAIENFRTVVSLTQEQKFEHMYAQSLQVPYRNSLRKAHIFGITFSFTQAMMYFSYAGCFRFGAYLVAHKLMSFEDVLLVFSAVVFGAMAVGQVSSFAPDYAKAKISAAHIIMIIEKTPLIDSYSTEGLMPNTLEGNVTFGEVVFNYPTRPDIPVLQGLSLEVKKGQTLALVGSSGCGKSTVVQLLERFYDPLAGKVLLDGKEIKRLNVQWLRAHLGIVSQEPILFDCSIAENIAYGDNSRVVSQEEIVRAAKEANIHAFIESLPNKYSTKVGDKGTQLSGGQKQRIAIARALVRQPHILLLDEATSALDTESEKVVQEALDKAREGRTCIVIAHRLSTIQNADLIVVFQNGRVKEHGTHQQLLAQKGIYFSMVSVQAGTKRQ

For `COC1=C2C[C@@H](C)C[C@H](OC)[C@H](O)[C@@H](C)/C=C(\C)[C@H](OC(N)=O)[C@@H](OC)/C=C\C=C(/C)C(=O)NC(=CC1=O)C2=O` [geldanamycin], the solubility [1] is listed as “poorly soluble”.
For `C[C@@H]1C[C@H]2O[C@@H]2/C=C\C=C\C(=O)Cc2c(Cl)c(O)cc(O)c2C(=O)O1` [radicicol], the solubility [1] is listed as “poorly soluble”.
For `C=CCNC1=C2C[C@@H](C)C[C@H](OC)[C@H](O)[C@@H](C)/C=C(\C)[C@H](OC(N)=O)[C@@H](OC)/C=C\C=C(/C)C(=O)NC(=CC1=O)C2=O` [Compound 17AAG, 17-(allyllamino)-17-demethoxygeldanamycin], the “effects on p35 and mTau” value [2] is given as “Analogous effects”, the solubility [1] is given as “poorly soluble” and the P-gp substrate (P-glycoprotein) is given as “is a P-gp substrate”. For the same compound, the P-gp substrate (P-glycoprotein; listed as 17-AAG) was “is a P-glycoprotein substrate”.
